# Assay results from article PMC3432134, “Effect of Ambient Temperature on the Thermoregulatory and Locomotor Stimulant Effects of 4-Methylmethcathinone in Wistar and Sprague-Dawley Rats” (PLoS ONE, 2012).
# Where “and” joins values, the source holds several entries; their conditions need not be identical. Equal entries are not always repeated.
# Assays:
# Sprague-Dawley rats = tested on: Sprague-Dawley rats; design: method as in PMID 21810934; conditions: four sequential doses of 1.0 or 3.0 mg/kg s.c. two hours apart, and i.v. self-administration (mean 1.77–6.78 mg/kg), ambient ≥27°C; cited from earlier work
# [1] = tested on: Wistar and Sprague-Dawley rats; assay: Locomotor activity (activity counts) by implanted radiotelemetry after s.c. drug challenge
# [2] = tested on: 5-HT2 receptor subtypes versus D2 receptors; design: method as in PMID 21824752; conditions: in vitro; greater affinity for 5-HT2; cited from earlier work
# extracellular dopamine = tested on: extracellular dopamine; design: method as in PMID 21615721, PMID 22169943; conditions: cited from earlier work
# [3] = tested on: extra-cellular dopamine in the nucleus accumbens shell; assay: In vivo microdialysis, nucleus accumbens shell, dopamine; design: species or system rat; conditions: 5 male Wistar rats, 10 mg/kg s.c.
# Protocol: (§1) For microdialysis studies, drug naïve rats were implanted with a microdialysis guide cannula and probe using previously published procedures. A guide cannula (SciPro, Sanborn, NY) was implanted aimed at the NAc shell (AP = +1.6 mm, bregma; ML = ±2.0 mm, bregma; DV = –5.0 mm, dura), and rats were allowed one week for recovery. On the evening prior to the experiment, a 2 mm microdialysis probe was inserted into the guide cannula and perfused overnight with artificial CSF (0.1 µl/min) composed of the following (in mM): 149 NaCl, 2.8 KCl, 1.2 CaCl2, 1.2 MgCl2, 0.25 ascorbic acid, 5.4 D-glucose. The following morning, the perfusion rate was raised to 0.6 µl/min and samples were collected in 15 min fractions following 1 hr of equilibration.
# [4] = tested on: Wistar and Sprague-Dawley rats; assay: Body temperature by implanted radiotelemetry after s.c. drug challenge
# [5] = tested on: extra-cellular serotonin in the nucleus accumbens shell; assay: In vivo microdialysis, nucleus accumbens shell, serotonin; design: species or system rat; conditions: 5 male Wistar rats, 10 mg/kg s.c.
# Protocol: as §1
# [6] = Pharmacokinetic study, plasma levels by LC/MS/MS after s.c. dosing; format: in vivo, rat; conditions: for AUC(0-inf) / Tmax / Cmax: rat, plasma, sc, 5.6 mg/kg s.c.
# Protocol: Surgical placement of jugular vein catheters was conducted at the vendor prior to delivery at the laboratory. Blood samples were collected via the jugular catheters at timepoints 5, 15, 30, 60, 120 min and 3, 6 and 24 hrs after dosing. Plasma was stored at −80°C until analysis for drug concentrations via LC/MS/MS. Sample analysis was by LC/MS/MS with data analysis via the non compartmental analysis model of PK Solutions (Summit Research Services; Montrose, CO). The summary data for the Sprague-Dawley group have been previously described.
# experienced-user sample = conditions: one experienced-user sample; cited from earlier work
# [7] = Sprague-Dawley rats, 23°C ambient, first hour after 3.2 mg/kg 4-MMC and 5.6 mg/kg METH, vs pretreatment and vehicle
# [8] = Wistar and Sprague-Dawley rats, s.c.
# [9] = Wistar rats, 23°C ambient, first hour after 3.2 mg/kg 4-MMC or 5.6 mg/kg METH, second hour after 10.0 mg/kg 4-MMC, third hour after 5.6 mg/kg METH
# [10] = both strains, 23°C ambient, first hour after 10.0 mg/kg 4-MMC or 1.0 mg/kg METH s.c., greater in Sprague-Dawley
# [11] = Wistar Han, male Wistar rats (N = 3)
# [12] = male Sprague Dawley rats (N = 3), summary data previously described [32]
# [13] = subcutaneous dosing, rats (strain not given)
structure (smiles),measurement,setting,value
"CNC(C)C(=O)c1ccc(C)cc1 (stereo not drawn) [4-MMC, 4-methylmethcathinone]",rectal temperature,Sprague-Dawley rats,elevates
same,locomotor activity (hourly summed counts),[1]; [7],reliably higher
same,locomotor activity (hourly summed counts),"[1]; Sprague-Dawley rats, 27°C ambient, first hour after 5.6 or 10.0 mg/kg, vs pre-injection, vehicle and Wistar",higher
same,efficacy in stimulating locomotion relative to d-methamphetamine (METH),[1]; [8],equally efficacious
same,potency in stimulating locomotion relative to METH,[1]; [8],about tenfold less potent
same,locomotor activity (hourly summed counts),[1]; [9],higher than the vehicle condition
same,locomotor activity (hourly summed counts),"[1]; Wistar rats, 27°C ambient, after 3.2, 5.6 and 10.0 mg/kg, vs hour before injection and vehicle",higher
same,locomotor activity (hourly summed counts),[1]; [10],increased over pretreatment levels and vehicle
same,locomotor activity (hourly summed counts),"[1]; each strain, 23°C ambient, first hour after 5.6 or 10.0 mg/kg s.c., vs pre-injection hour and saline",significantly elevated
same,locomotor activity (hourly summed counts),"[1]; each strain, 23°C ambient, second hour after 10.0 mg/kg, vs vehicle, effect greater in Sprague-Dawley",significant increase
same,affinity for 5-HT2 receptor subtypes relative to D2 receptors,[2],15 fold
same,"increase of extracellular dopamine, less than METH",extracellular dopamine,about 6 fold
same,relative increase of extra-cellular DA over baseline,[3],~9 fold
same,duration of significant increase of DA over the pre-treatment average,[3]; Dunnett post-hoc,2 h
same,body temperature (hourly average),"[4]; Sprague-Dawley rats, 23°C ambient, only following 3.2 mg/kg (2, 3 hrs) and 5.6 mg/kg (3 hrs)",lower than both the pretreatment baseline and the comparable timepoint after vehicle injection
same,body temperature (hourly average),"[4]; Sprague-Dawley rats, 23°C ambient, second hour after 10.0 mg/kg",increased relative to vehicle
same,body temperature (hourly average),"[4]; Sprague-Dawley rats, 27°C ambient, first hour after administration",unchanged
same,body temperature (hourly average),"[4]; Sprague-Dawley rats, 27°C ambient, third hour after 1.0 mg/kg, vs baseline and vehicle",reliable decrease
same,mean temperature nadir,"[4]; Wistar rats, 10 mg/kg s.c., 23°C ambient, (±SEM)",36.74 (±0.187) °C
same,mean temperature nadir,"[4]; Wistar rats, 10 mg/kg s.c., 27°C ambient, (±SEM)",37.35 (±0.115) °C
same,body temperature (hourly average),"[4]; Wistar rats, 23°C ambient, first hour after 3.2, 5.6 and 10 mg/kg s.c., vs baseline, saline and Sprague-Dawley",significantly lowered
same,body temperature (hourly average),"[4]; Wistar rats, 27°C ambient, first hour after 5.6 or 10.0 mg/kg s.c., vs baseline, saline and Sprague-Dawley",decreased
same,duration of temperature and activity effects,"[4]; s.c. dosing, rats, applies to temperature and activity",about 90 minutes
same,relative increase of extra-cellular 5-HT over baseline,[5],~22 fold
same,duration of significant increase of 5-HT over the pre-treatment average,[5]; Dunnett post-hoc,1.5 h
same,AUC(0-inf),[6]; [11],870 ng·h/mL
same,Tmax,[6]; [11],15 min
same,Cmax,[6]; [11],868 ng/mL and 4.9 µM
same,AUC(0-inf),[6]; [12],1170 ng·h/mL
same,Tmax,[6]; [12],15 min
same,Cmax,[6]; [12],1210 ng/mL and 6.81 µM
same,elimination from plasma,[6]; [13],mostly eliminated within two hours
same,time at which maximum plasma levels were observed,[6]; [13],≤ 15 min
same,users reporting cold extremities,experienced-user sample,About 15%
same,users reporting excessive perspiration,experienced-user sample,67%
CCCN(CCC)C1CCc2cccc(O)c2C1 (stereo not drawn) [8-OH-DPAT],mean temperature nadir,"[4]; Sprague-Dawley rats, 0.3 mg/kg s.c., 23°C ambient",35.62 (±0.177) °C
same,body temperature (hourly average),"[4]; Sprague-Dawley rats, 0.05, 0.1, 0.3 mg/kg, first hour (second hour also for 0.3 mg/kg), vs vehicle and baseline",lowered body temperature
same,mean temperature nadir,"[4]; Wistar rats, 0.3 mg/kg s.c., 23°C ambient",35.18 (±0.178) °C
same,body temperature (hourly average),"[4]; Wistar rats, two hours after dosing with all three doses (0.05, 0.1, 0.3 mg/kg), vs vehicle and baseline",hypothermia
same,body temperature,"[4]; each strain of rats, 23°C ambient, s.c.",significantly reduced
"CN[C@@H](C)Cc1ccccc1 [METH, d-methamphetamine]",locomotor activity (hourly summed counts),[1]; [7],reliably higher
same,locomotor activity (hourly summed counts),[1]; [9],higher than the vehicle condition
same,locomotor activity (hourly summed counts),[1]; [10],increased over pretreatment levels and vehicle
same,locomotor activity (hourly summed counts),"[1]; both strains, 23°C ambient, second hour after 5.6 mg/kg s.c.",suppressed
same,body temperature (hourly average),"[4]; Sprague-Dawley rats, 23°C ambient, first hour after 1.0 mg/kg and first two hours after 5.6 mg/kg s.c., vs baseline and vehicle",significantly increased
